How the values were obtained:
fos = fos / c-fos mRNA expression in chondrocytes (Northern blot); format: cell-based, bovine; details: stimulus alone; H2 O2 30, 60 and 90 minutes; IL-1, PMA or AA (3 μM) 1 hour
Procedure: (§1) The cytokine interleukin 1 (IL 1) has been used to identify the intermediate second messengers which regulate the expression of fos and jun.
In order to elucidate this possibility, the effect of DPI on fos and jun mRNA levels induced by IL 1 was investigated. RNA from chondrocytes treated with IL 1 in the presence and absence of DPI were analyzed by Northern blot analysis using either fos or collagenase cDNA probes.
Since superoxides are rapidly converted to hydrogen peroxide in the cell by superoxide dismutase, whether hydrogen peroxide could mimic the effect of IL 1 in the induction of fos expression was investigated. RNA was extracted from chondrocytes (Kandel et al. supra) treated with H2 O2 for 30, 60 and 90 minutes and examined by Northern blot analysis using a fos cDNA probe.
Bovine articular chondrocytes were isolated and plated as previously described (Kandel R. A. et al. Biochim. Biophys. Acta. 1053, 130-134, 1990). […] The amount of ^3 H-AA liberated into the supernatant was determined. To measure PGE2 production, chondrocytes were incubated for 6 hours in Ham's F12 medium, either alone or with IL 1 or PMA. […] In order to examine the expression of c-fos and c-jun, chondrocytes were incubated for 1 hour in the presence of IL-1, PMA or AA (3 μM). Chondrocytes were washed in PBS and the total RNA extracted as previously described (Cruz. et al, 1991, Biochem. J. 277, 327-330). RNA samples were run on formaldehyde agarose gels and transferred to nylon membrane for northern analysis using cDNA probes for c-fos and c-jun.
The RNA was extracted and examined by Northern blot analysis using cDNA probes for c-fos and collagenase.

jun = jun / c-jun mRNA expression in chondrocytes (Northern blot); format: cell-based, bovine; details: stimulus alone, 1 hour
Text: as §1
Although IL 1 stimulated superoxide production, it was not known whether IL 1 induced fos and jun expression was dependent on the production of superoxides. In order to elucidate this possibility, the effect of DPI on fos and jun mRNA levels induced by IL 1 was investigated. RNA from chondrocytes treated with IL 1 in the presence and absence of DPI were analyzed by Northern blot analysis using either fos or collagenase cDNA probes. […] Similar data has been obtained for IL 1 induced jun expression. Furthermore, inhibition of fos and jun expression by DPI was sufficient to suppress IL 1 induced and constitutive collagenase expression.
The effect of orthovanadate and N-acetylcysteine on fos, jun and collagenase expression were examined. Bovine articular chondrocytes were isolated and plated as previously described (Kandel R. A. et al. Biochim. Biophys. Acta. 1053, 130-134, 1990). In order to determine the effect of orthovanadate on IL 1 and PMA (phorbol ester) induced responses, chondrocytes were incubated with orthovanadate (100 μM) for 2 hours before stimulation with IL 1 (10 ng/ml) or PMA ([…]). Collagenase production was determined by incubating chondrocytes for 24 hours with IL 1 or PMA and the cell conditioned medium was assayed for collagenase activity using an ELISA procedure as described previously (Kandel et al. supra). PLA2 activity was measured by incorporating ^3 H-arachidonic acid (^3 H-AA) into the cells and then incubating the cells with medium containing 1 mg/ml BSA, either alone or in the presence of IL 1 or PMA, for 10 min. as previously described (Conquer, J. A. […], Biochim. Biophys. Acta. 1134, 1-6). The amount of ^3 H-AA liberated into the supernatant was determined. […] The supernatant was analyzed by RIA using an antibody specific for PGE2 (Dr. S. A. Jones, Mount Sinai Hospital, Toronto, Canada). […]

c-fos = assay: TNFα and bFGF induced c-fos mRNA in chondrocytes (Northern blot); format: cell-based, bovine; details: 100 μM, 2 hours preincubation
Procedure: Chondrocyte cultures were stimulated with H2 O2 (100 μM) at different time points as indicated. […] Chondrocyte cultures were preincubated with NAC (30 mM) or Asc (100 μM) for 2 hours before the addition of bFGF (10 ng/ml) or TNFα (30 ng/ml) for 30 minutes. Both human recombinant TNFα and bFGF were dissolved in phosphate buffered saline with 0.1% bovine serum albumin. NAC and Asc were first dissolved in Ham's F12 medium containing 5% (v/v) fetal bovine serum, then neutralized with sodium hydroxide. Total RNA from bovine articular chondrocytes was isolated and the c-fos mRNA levels were determined by Northern blot analysis as described herein. The blots were subsequently stripped of DNA and re-probed with ^32 p-labelled rat β tubulin cDNA.
Chondrocyte cultures were pretreated with DPI (2 μM) for 30 minutes before the addition of TNFα (30 ng/ml) or bFGF (10 ng/ml) for 30 minutes. Measurements of c-fos and tubulin mRNA levels were as described in Example 11.

carcinogenesis = details: G. Shklar et al.; cited from earlier work
collagenase = collagenase production by chondrocytes (ELISA); format: cell-based, bovine; details: stimulus alone, 24 hours
Procedure: The effect of orthovanadate and N-acetylcysteine on fos, jun and collagenase expression were examined. Bovine articular chondrocytes were isolated and plated as previously described (Kandel R. A. et al. Biochim. Biophys. Acta. 1053, 130-134, 1990). In order to determine the effect of orthovanadate on IL 1 and PMA (phorbol ester) induced responses, chondrocytes were incubated with orthovanadate (100 μM) for 2 hours before stimulation with IL 1 (10 ng/ml) or PMA ([…]). Collagenase production was determined by incubating chondrocytes for 24 hours with IL 1 or PMA and the cell conditioned medium was assayed for collagenase activity using an ELISA procedure as described previously (Kandel et al. supra). PLA2 activity was measured by incorporating ^3 H-arachidonic acid (^3 H-AA) into the cells and then incubating the cells with medium containing 1 mg/ml BSA, either alone or in the presence of IL 1 or PMA, for 10 min. as previously described (Conquer, J. A. […], Biochim. Biophys. Acta. 1134, 1-6). The amount of ^3 H-AA liberated into the supernatant was determined. To measure PGE2 production, chondrocytes were incubated for 6 hours in Ham's F12 medium, either alone or with IL 1 or PMA. The supernatant was analyzed by RIA using an antibody specific for PGE2 (Dr. S. A. Jones, Mount Sinai Hospital, Toronto, Canada). In order to examine the expression of c-fos and c-jun, chondrocytes were incubated for 1 hour in the presence of IL-1, PMA or AA (3 μM). Chondrocytes were washed in PBS and the total RNA extracted as previously described (Cruz. et al, 1991, Biochem. J. 277, 327-330). RNA samples were run on formaldehyde agarose gels and transferred to nylon membrane for northern analysis using cDNA probes for c-fos and c-jun.

PGE2 = PGE2 production by chondrocytes (RIA); format: cell-based, bovine; details: stimulus alone, 6 hours
Procedure: (§2) The effect of orthovanadate and N-acetylcysteine on fos, jun and collagenase expression were examined. Bovine articular chondrocytes were isolated and plated as previously described (Kandel R. A. et al. Biochim. Biophys. Acta. 1053, 130-134, 1990). In order to determine the effect of orthovanadate on IL 1 and PMA (phorbol ester) induced responses, chondrocytes were incubated with orthovanadate (100 μM) for 2 hours before stimulation with IL 1 (10 ng/ml) or PMA ([…]). Collagenase production was determined by incubating chondrocytes for 24 hours with IL 1 or PMA and the cell conditioned medium was assayed for collagenase activity using an ELISA procedure as described previously (Kandel et al. supra). PLA2 activity was measured by incorporating ^3 H-arachidonic acid (^3 H-AA) into the cells and then incubating the cells with medium containing 1 mg/ml BSA, either alone or in the presence of IL 1 or PMA, for 10 min. as previously described (Conquer, J. A. […], Biochim. Biophys. Acta. 1134, 1-6). The amount of ^3 H-AA liberated into the supernatant was determined. To measure PGE2 production, chondrocytes were incubated for 6 hours in Ham's F12 medium, either alone or with IL 1 or PMA. The supernatant was analyzed by RIA using an antibody specific for PGE2 (Dr. S. A. Jones, Mount Sinai Hospital, Toronto, Canada). […]

PLA2 = assay: release of 3H-arachidonic acid from chondrocytes (PLA2 activity); format: cell-based, bovine; details: stimulus alone, 10 min
Procedure: as §2

KB8, KB8-5 and KB85-11 = details: stated as background; cited from earlier work
MCF7 (ADR) = assay: MTT cytotoxicity assay, MCF7 (ADR); format: cell-based, human; details: Homo sapiens, NCI/ADR-RES, 72 h, read-out: IC50 Value
Procedure: (§3) The relative cytotoxicity of various compounds on tumor cell lines was investigated as follows. Cytotoxicity was measured by the MTT microculture tetrazolium colorimetric assay for all cell lines. The relative cytotoxicity of Na3 VO4 and VOSO4 was investigated using the following tumor cell lines: P388(WT) murine leukemia, P388 (ADR) murine leukemia, Lewis murine lung, MCF7 (WT) human breast, […] human lung, K562 human erythroleukemia, A431 human epidermal, LS180 human colon and SK-OV-3 human ovarian. The relative cytotoxicity of doxorubicin, Na3 VO4 and VOSO4 was investigated using the following tumor cell lines: P388(WT) murine leukemia, P388 (ADR) murine leukemia, MCF7(WT) human breast and MCF7 (ADR) human breast. The relative cytotoxicity of BMOV, BEOV and naglivan was investigated using the following tumor cell lines: P388(WT) murine leukemia, P388 (ADR) murine leukemia, Lewis murine lung, H460 human lung, K562 human erythroleukemia, and SK-OV-3 human ovarian.
(§4) The cells were plated (number of cells/well was different from cell line to cell depending on the dividing rate) in a 96-well microculture plate 24 hours prior to the delivery of the vanadium compounds. Serial concentrations of solutions of the test compounds (0.05-100 μM) were delivered to the corresponding wells. A blank column (without cells) and a control column (with cells without vanadium) were left. The cells were incubated for 72 hours continuously. An MTT solution was added to each well after this incubation period and the cells were incubated for 4 more hours for the completion of the dyeing process. The medium was removed find DMSO was added to each well. The absorbance of each well was read with a Titertek Multiskan (310C) spectrophotometer at 570 nm. The percentage of the absorbance of each vanadium concentration relative to the control calculated and the value of the 50% growth inhibition concentration (IC50) was obtained from the % control versus concentration plot. Each assay was repeated three times and the reported IC50 values were the mean of these three runs.

P388 (ADR) = assay: MTT cytotoxicity assay, P388 (ADR); format: cell-based, murine; details: Mus musculus, P388/ADR, 72 h, read-out: IC50 Value
Procedure: as §3, §4

P388 (WT) = assay: MTT cytotoxicity assay, P388 (WT); format: cell-based, murine; details: Mus musculus, P388, 72 h, read-out: IC50 Value
Procedure: as §3, §4

MCF7 (WT) = assay: MTT cytotoxicity assay, MCF7 (WT); format: cell-based, human; details: Homo sapiens, MCF7, 72 h, read-out: IC50 Value
Procedure: as §3, §4

chondrocytes = assay: TNFα and bFGF induced ROS production in chondrocytes (DHR fluorescence); format: cell-based; details: 4 hours in the presence of DHR
Procedure: With time, DHR by itself caused a shift in fluorescence to the right as shown in panels a to c. A dotted line was drawn through the mean fluorescence intensity of the control (panel c) with DHR alone for 4 hours. After incubation with TNFα or bFGF for 4 hours in the presence of DHR, there was a further shift in logarithmic fluorescence intensity as indicated in panel d or f. In panels e and g, DPI abolished the fluorescent shift stimulated by TNPα and bFGF respectively.

For `CCCCC/C=C\C/C=C\C/C=C\C/C=C\CCCC(=O)O` [AA, arachidonic acid], the “stimulation of fos / c-fos expression” value (fos) was “stimulated” and the “stimulation of c-jun expression” value (jun) was “stimulated”.

In the case of `O=C1O[C@H]([C@@H](O)CO)C(O)=C1O` [Asc, ascorbic acid], the “inhibition of TNFα and bFGF induced c-fos mRNA levels” value (c-fos) is given as “inhibit” and the anticancer activity (carcinogenesis) is given as “anticancer activity”.

In the case of `CCCCCCCCCCCCCC(=O)O[C@@H]1[C@@H](C)[C@@]2(O)[C@@H](C=C(CO)C[C@]3(O)C(=O)C(C)=C[C@@H]23)[C@@H]2C(C)(C)[C@]12OC(C)=O` [PMA, reference compound], the “stimulation of fos / c-fos expression” value (fos) is reported as “stimulated”, the “induction of collagenase production” value (collagenase) is reported as “induced” and the “induction of PGE2 production” value (PGE2) is reported as “induced”. For the same compound, the “stimulation of c-jun expression” value (jun) was “stimulated” and the “induction of 3H-AA release” value (PLA2) was “induced”.

For `COc1cc2c(c(OC)c1OC)-c1ccc(OC)c(=O)cc1[C@@H](NC(C)=O)CC2` [colchicine], the “killing of drug resistant cell lines by conventional chemotherapeutic agents” value (“killing of drug resistant cell lines” for short) (KB8, KB8-5 and KB85-11) is given as “not killed”.

In the case of `COc1cccc2c1C(=O)c1c(O)c3c(c(O)c1C2=O)C[C@@](O)(C(=O)CO)C[C@@H]3O[C@H]1C[C@H](N)[C@H](O)[C@H](C)O1` [doxorubicin, reference compound], the IC50 (MCF7 (ADR)) is given as 25700 nM, the “killing of drug resistant cell lines” value (KB8, KB8-5 and KB85-11) is given as “not killed” and the IC50 (P388 (ADR)) is given as 3770 nM. The IC50 (P388 (WT)) was 23 nM and the IC50 (MCF7 (WT)) was 492 nM.

For `CC[C@]1(O)C[C@@H]2CN(CCc3c([nH]c4ccccc34)[C@@](C(=O)OC)(c3cc4c(cc3OC)N(C)[C@H]3[C@@](O)(C(=O)OC)[C@H](OC(C)=O)[C@]5(CC)C=CCN6CC[C@]43[C@@H]65)C2)C1` [vinblastine], the “killing of drug resistant cell lines” value (KB8, KB8-5 and KB85-11) is listed as “not killed”.

For TNFα, the “shift in logarithmic fluorescence intensity (ROS production)” value (chondrocytes) was “further shift”.

For bFGF: human recombinant bFGF, the “shift in logarithmic fluorescence intensity (ROS production)” value (chondrocytes) was “further shift”.
